Measurements as given in patent US20160272617A1, “SUBSTITUTED PHENYLALANINE DERIVATIVES” (BAYER PHARMA AKTIENGESELLSCHAFT, priority 2013, published 2016).
Counter-ions that a name gives are not always drawn.

Legend:
human and animal plasma = test: Determination of anticoagulatory activity: activated partial thromboplastin time (aPTT) in plasma; settings: concentration of test substance which brings about a 1.5-fold extension of the aPTT; plasma species not given
How it was run: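 Citrated plasma (1:9, 0.11 M citrate; 4000 g, 15 min) from human or animal blood incubated with test compound and cephalin/kaolin PTT reagent for 3 min at 37° C.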

human factor XIa = molecular target: T1, human factor XIa (Homo sapiens, UniProt P03951); test: Measurement of FXIa inhibition (fluorogenic peptide substrate Boc-Glu(OBzl)-Ala-Arg-AMC); format: biochemical; settings: factor XIa from Kordia, 15 min preincubation, 30 min at 22° C., fluorescence
T1 construct: purchased Kordia
T1 sequence (P03951 388-625 limits assumed): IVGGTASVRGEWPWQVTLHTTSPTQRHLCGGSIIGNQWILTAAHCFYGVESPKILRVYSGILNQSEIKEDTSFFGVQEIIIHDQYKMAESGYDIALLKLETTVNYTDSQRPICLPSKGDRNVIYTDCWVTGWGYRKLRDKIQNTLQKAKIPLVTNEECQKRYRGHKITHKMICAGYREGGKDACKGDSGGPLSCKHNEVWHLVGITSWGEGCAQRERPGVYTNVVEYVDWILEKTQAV
T1 sequence (P03951 19-387 partner limits assumed): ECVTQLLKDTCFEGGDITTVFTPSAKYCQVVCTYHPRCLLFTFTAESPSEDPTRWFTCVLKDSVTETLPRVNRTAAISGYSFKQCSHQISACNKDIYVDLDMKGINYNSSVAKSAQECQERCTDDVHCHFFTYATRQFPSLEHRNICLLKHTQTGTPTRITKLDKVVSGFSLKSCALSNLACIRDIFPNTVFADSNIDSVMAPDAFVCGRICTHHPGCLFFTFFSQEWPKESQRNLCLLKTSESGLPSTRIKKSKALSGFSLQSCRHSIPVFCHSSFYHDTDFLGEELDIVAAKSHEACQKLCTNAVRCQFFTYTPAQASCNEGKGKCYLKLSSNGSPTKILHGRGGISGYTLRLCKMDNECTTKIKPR
How it was run: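 Released AMC fluorescence (360/460 nm) read after 30 min at 22 °C. The reaction was started with Boc-Glu(OBzl)-Ala-Arg-AMC (10 μM stock) after a 15 min preincubation of the enzyme (0.45 nM stock) with compound (final 50 μM to 0.00013 μM).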

Structure (SMILES)	aPTT (human and animal plasma)	IC50 (human factor XIa)
Cc1cc(C(=O)NC2CCNC(C)C2)ccc1-c1ccc(C[C@H](NC(=O)[C@H]2CC[C@H](CN)CC2)C(=O)Nc2ccc3c(=O)[nH][nH]c3c2)cc1 (stereo partly drawn) [Example 31, 4′-{(2S)-2-({[trans-4-(Aminomethyl)cyclohexyl]carbonyl}amino)-3-oxo-3-[(3-oxo-2,3-dihydro-1H-indazol-6-yl)amino]propyl}-2-methyl-N-(2-methylpiperidin-4-yl)biphenyl-4-carboxamide hydrochloride]	0.22 µmol/L	30 nM
Cc1cc(C(=O)NC2CCNCC2)ccc1-c1ccc(C[C@H](NC(=O)[C@H]2CC[C@H](CN)CC2)C(=O)Nc2ccc3nc(-n4cccn4)[nH]c3c2)cc1 [Example 60, 4′-[(2S)-2-({[trans-4-(Aminomethyl)cyclohexyl]carbonyl}amino)-3-oxo-3-{[2-(1H-pyrazol-1-yl)-1H-benzimidazol-6-yl]amino}propyl]-2-methyl-N-(piperidin-4-yl)biphenyl-4-carboxamide hydrochloride]	0.63 µmol/L	45 nM
Cc1cc(C(=O)NC2CCN(C)CC2)ccc1-c1ccc(C[C@H](NC(=O)[C@H]2CC[C@H](CN)CC2)C(=O)Nc2ccc3[nH]c(C(F)(F)C(F)(F)F)nc3c2)cc1 [Example 82, 4′-[(2S)-2-({[trans-4-(Aminomethyl)cyclohexyl]carbonyl}amino)-3-oxo-3-{[2-(pentafluoroethyl)-1H-benzimidazol-5-yl]amino}propyl]-2-methyl-N-(1-methylpiperidin-4-yl)biphenyl-4-carboxamide hydrochloride]	0.39 µmol/L	21 nM
Cc1cc(C(=O)N(C)C2CCN(C)CC2)ccc1-c1ccc(C[C@H](NC(=O)[C@H]2CC[C@H](CN)CC2)C(=O)Nc2ccc(-c3nnc(C(F)(F)C(F)(F)C(=O)O)[nH]3)cc2)cc1 [Example 113, 3-[5-(4-{[(2S)-2-({[trans-4-(Aminomethyl)cyclohexyl]carbonyl}amino)-3-{2′-methyl-4′-[methyl(1-methylpiperidin-4-yl)carbamoyl]biphenyl-4-yl}propanoyl]amino}phenyl)-4H-1,2,4-triazol-3-yl]-2,2,3,3-tetrafluoropropanoic acid hydrochloride]	0.07 µmol/L	4.9 nM
Cc1cc(C(=O)NC2CCNCC2)ccc1-c1ccc(C[C@H](NC(=O)[C@H]2CC[C@H](CN)CC2)C(=O)Nc2ccc3[nH]c(C(F)(F)C(F)(F)F)nc3c2)cc1 [Example 57, 4′-[(2S)-2-({[trans-4-(Aminomethyl)cyclohexyl]carbonyl}amino)-3-oxo-3-{[2-(pentafluoroethyl)-1H-benzimidazol-5-yl]amino}propyl]-2-methyl-N-(piperidin-4-yl)biphenyl-4-carboxamide hydrochloride]	0.44 µmol/L	8.4 nM
COc1cc(C(=O)NC2CCN(C)CC2)cc(OC)c1-c1ccc(C[C@H](NC(=O)[C@H]2CC[C@H](CN)CC2)C(=O)Nc2ccc(-c3nn[nH]n3)cc2)cc1 [Example 117, 4′-[(2S)-2-({[trans-4-(Aminomethyl)cyclohexyl]carbonyl}amino)-3-oxo-3-{[4-(2H-tetrazol-5-yl)phenyl]amino}propyl]-2,6-dimethoxy-N-(1-methylpiperidin-4-yl)biphenyl-4-carboxamide hydrochloride]	0.18 µmol/L	8.9 nM
Cc1cc(C(=O)N2CCNCC2)ccc1-c1ccc(C[C@H](NC(=O)[C@H]2CC[C@H](CN)CC2)C(=O)Nc2ccc3cn[nH]c3c2)cc1 [Example 5, trans-4-(Aminomethyl)-N-{(2S)-1-(1H-indazol-6-ylamino)-3-[2′-methyl-4′-(piperazin-1-ylcarbonyl)biphenyl-4-yl]-1-oxopropan-2-yl}cyclohexanecarboxamide hydrochloride]	0.21 µmol/L	16 nM
Cc1cc(C(=O)N[C@H]2CC[C@H](N(C)C)CC2)ccc1-c1ccc(C[C@H](NC(=O)[C@H]2CC[C@H](CN)CC2)C(=O)Nc2ccc3[nH]c(C(F)(F)C(F)(F)F)nc3c2)cc1 [Example 78, 4′-[(2S)-2-({[trans-4-(Aminomethyl)cyclohexyl]carbonyl}amino)-3-oxo-3-{[2-(pentafluoroethyl)-1H-benzimidazol-5-yl]amino}propyl]-N-[4-(dimethylamino)cyclohexyl]-2-methylbiphenyl-4-carboxamide hydrochloride]	0.38 µmol/L	12 nM
CNC1CCC(NC(=O)c2ccc(-c3ccc(C[C@H](NC(=O)[C@H]4CC[C@H](CN)CC4)C(=O)Nc4ccc(-c5nnn[nH]5)cc4)cc3)c(C)c2)CC1 (stereo partly drawn) [Example 147, 4′-[(2S)-2-({[trans-4-(Aminomethyl)cyclohexyl]carbonyl}amino)-3-oxo-3-{[4-(1H-tetrazol-5-yl)phenyl]amino}propyl]-2-methyl-N-[4-(methylamino)cyclohexyl]biphenyl-4-carboxamide hydrochloride]	0.01 µmol/L	1.7 nM
CCN(CC)C1CCC(NC(=O)c2ccc(-c3ccc(C[C@H](NC(=O)[C@H]4CC[C@H](CN)CC4)C(=O)Nc4ccc5c(Cl)n[nH]c5c4)cc3)c(C)c2)CC1 (stereo partly drawn) [Example 94, 4′-{(2S)-2-({[trans-4-(Aminomethyl)cyclohexyl]carbonyl}amino)-3-[(3-chloro-1H-indazol-6-yl)amino]-3-oxopropyl}-N-[4-(diethylamino)cyclohexyl]-2-methylbiphenyl-4-carboxamide hydrochloride]	0.23 µmol/L	9.2 nM
Cc1cc(C(=O)NC2CCNCC2)ccc1-c1ccc(C[C@H](NC(=O)[C@H]2CC[C@H](CN)CC2)C(=O)Nc2ccc3nc(-c4cccnc4)[nH]c3c2)cc1 [Example 59, 4′-[(2S)-2-({[trans-4-(Aminomethyl)cyclohexyl]carbonyl}amino)-3-oxo-3-{[2-(pyridin-3-yl)-1H-benzimidazol-6-yl]amino}propyl]-2-methyl-N-(piperidin-4-yl)biphenyl-4-carboxamide hydrochloride]	0.51 µmol/L	34 nM
NC[C@H]1CC[C@H](C(=O)N[C@@H](Cc2ccc(-c3ccc(C(=O)NC4CCNCC4)c(Cl)c3)cc2)C(=O)Nc2ccc(-c3nn[nH]n3)cc2)CC1 [Example 122, 4′-[(2S)-2-({[trans-4-(Aminomethyl)cyclohexyl]carbonyl}amino)-3-oxo-3-{[4-(2H-tetrazol-5-yl)phenyl]amino}propyl]-3-chloro-N-(piperidin-4-yl)biphenyl-4-carboxamide hydrochloride]	0.16 µmol/L	5.2 nM
Cc1cc(C(=O)NC2CCNCC2)ccc1-c1ccc(C[C@H](NC(=O)[C@H]2CC[C@H](CN)CC2)C(=O)Nc2ccc(-c3nc(C(F)(F)C(F)(F)C(=O)O)n[nH]3)cc2)cc1 [Example 98, 3-{(5-[4-({(2S)-2-({[trans-4-(Aminomethyl)cyclohexyl]carbonyl}amino)-3-[2′-methyl-4′-(piperidin-4-ylcarbamoyl)biphenyl-4-yl]propanoyl}amino)phenyl]-1H-1,2,4-triazol-3-yl}-2,2,3,3-tetrafluoropropanoic acid hydrochloride]	0.06 µmol/L	1 nM
NC[C@H]1CC[C@H](C(=O)N[C@@H](Cc2ccc(-c3ccc(C(=O)N4CCNCC4)cc3)cc2)C(=O)Nc2ccc(-c3nn[nH]n3)cc2)CC1 [Example 47, trans-4-(Aminomethyl)-N-[(2S)-1-oxo-3-[4′-(piperazin-1-ylcarbonyl)biphenyl-4-yl]-1-{[4-(2H-tetrazol-5-yl)phenyl]amino}propan-2-yl]cyclohexanecarboxamide trifluoroacetate]	0.51 µmol/L	16 nM
Cc1cc(C(=O)NC2CCNCC2(C)C)ccc1-c1ccc(C[C@H](NC(=O)[C@H]2CC[C@H](CN)CC2)C(=O)Nc2ccc(-c3nnc(C(F)(F)C(F)(F)C(=O)O)[nH]3)cc2)cc1 (stereo partly drawn) [Example 107, 3-[5-(4-{[(2S)-2-({[trans-4-(Aminomethyl)cyclohexyl]carbonyl}amino)-3-{4′-[(3,3-dimethylpiperidin-4-yl)carbamoyl]-2′-methylbiphenyl-4-yl}propanoyl]amino}phenyl)-4H-1,2,4-triazol-3-yl]-2,2,3,3-tetrafluoropropanoic acid hydrochloride]	0.1 µmol/L	1.4 nM
Cc1cc(C(=O)NC2CCNCC2)ccc1-c1ccc(C[C@H](NC(=O)[C@H]2CC[C@H](CN)CC2)C(=O)Nc2ccc3[nH]c(-c4ccccn4)nc3c2)cc1 [Example 51, 4′-[(2S)-2-({[trans-4-(Aminomethyl)cyclohexyl]carbonyl}amino)-3-oxo-3-{[2-(pyridin-2-yl)-1H-benzimidazol-5-yl]amino}propyl]-2-methyl-N-(piperidin-4-yl)biphenyl-4-carboxamide hydrochloride]	0.44 µmol/L	11 nM
Cc1cc(C(=O)NC2CCNCC2(C)C)ccc1-c1ccc(C[C@H](NC(=O)[C@H]2CC[C@H](CN)CC2)C(=O)Nc2ccc(-c3nnn[nH]3)cc2)cc1 (stereo partly drawn) [Example 149, 4′-[(2S)-2-({[trans-4-(Aminomethyl)cyclohexyl]carbonyl}amino)-3-oxo-3-{[4-(1H-tetrazol-5-yl)phenyl]amino}propyl]-N-(3,3-dimethylpiperidin-4-yl)-2-methylbiphenyl-4-carboxamide hydrochloride]	0.04 µmol/L	1.8 nM
NC[C@H]1CC[C@H](C(=O)N[C@@H](Cc2ccc(-c3ccc(C(=O)NC4CCNCC4)cc3Cl)cc2)C(=O)Nc2ccc(-c3nn[nH]n3)cc2)CC1 [Example 11, 4′-[(2S)-2-({[trans-4-(Aminomethyl)cyclohexyl]carbonyl}amino)-3-oxo-3-{[4-(2H-tetrazol-5-yl)phenyl]amino}propyl]-2-chloro-N-(piperidin-4-yl)biphenyl-4-carboxamide hydrochloride]	0.08 µmol/L	2.5 nM
